The assay has as its system Spleen cells. Description: Mitogenesis Assay for Immunosuppressive Activity (Concanavalin A, 3H-thymidine). It counts as cell-based, BDF1 female mice. To be noted: Mus musculus; Concanavalin A 5 μg/ml, 72 hours, 3H-thymidine last 18 hours. On the procedure:
Spleen cells for BDF1 female mice were established in RPMI with 10% fetal calf serum at 5×10^6 /mL. One hundred […] of this suspension (5×10^5 cells) were dispensed into 96-well round-bottomed microtiter plates (Linbro, Flow Laboratories). Concanavalin A (5 μg/ml) was added as the mitogenic stimulus, and the final volume in the microtiter wells was adjusted to 200 μL with RPMI. Cell cultures were incubated for 72 hours at 37° C. in a 5% CO2 atmosphere and pulsed with 0,5 μCi ^3 H-thymidine (specific activity […]) for the last 18 hours of the 72 hours culture. The cells were harvested on an automated multiple sample harvester and cell-associated radioactivity counted in a Beckman liquid scintillation counter. The results were expressed as the mean values derived from quadruplicate measurements. Cell viability was determined by trypan blue exclusion after 72 hours of incubation. Compounds to be tested were added to the microtiter plates at the appropriate dilutions prior to the addition of cells.

With `COC1C(=O)C(C)CC(C)C=CC=CC=C(C)C(O)CC2CCC(C)C(O)(O2)C(=O)C(=O)N2CCCCC2C(=O)OC(C(C)CC2CCC(O)C(O)C2)CC(=O)C(C)C=C(C)C1O` (stereo not shown) [7,42-Bis(O-demethyl)rapamycin], the half-maximal inhibitory concentration (IC50) (in general, the point on the concentration scale where inhibition reaches its midpoint) was in the range of 10 to 130 nM.

The record behind these values is patent US5597715A, “7,42-Bis(O-demethyl)rapamycin” (SmithKline Beecham p.l.c., priority 1993, dated 1997).
